Results from paper PMC8519103 (Chemmedchem, 2021).
“And” between values parts separate entries of the source, which are not always exact repeats. Equal values may be shown once.

Each compound was assayed on M. bovis BCG (assay: microbe, parasite or virus in culture). Conditions: not given.
Format: cell-based, Mycobacterium bovis DSM-43990 (BCGT)

Structure (SMILES) | MIC50 relative to KD (MIC50 = x × KD)
C=CC(c1ccc(-c2ccc(OC)c(OC)c2)cc1)n1ccnc1 (stereo not drawn) [Compound S3, 1‐(1‐(3’,4’‐dimethoxy‐[1,1’‐biphenyl]‐4‐yl)allyl)‐1H‐imidazole] | > 2
C=CC(c1ccc(-c2ccc3[nH]ccc3c2)cc1)n1ccnc1 (stereo not drawn) [Compound S10, 5‐(4‐(1‐(1H‐imidazol‐1‐yl)allyl)phenyl)‐1H‐indole] | > 2
C=CC(c1ccc(-c2ccc3c(c2)OCO3)cc1)n1ccnc1 (stereo not drawn) [Compound S5, 1‐(1‐(4‐(benzo[d][1,3]dioxol‐5‐yl)phenyl)allyl)‐1H‐imidazole] | > 2
C=CC(c1ccc(-c2ccc3c(c2)OCO3)cc1F)n1ccnc1 (stereo not drawn) [Compound S8] | > 2
C=CC(c1ccc(-c2ccc(OC)c(C)c2)cc1)n1ccnc1 (stereo not drawn) [Compound S4, 1‐(1‐(4’‐methoxy‐3’‐methyl‐[1,1’‐biphenyl]‐4‐yl)allyl)‐1H‐imidazole] | > 2

Same assay, conditions: Mycobacterium tuberculosis variant bovis BCG, BCG, read-out: MIC50

Structure (SMILES) | IC50
Clc1ccc(COC(Cn2ccnc2)c2ccc(Cl)cc2Cl)cc1 (stereo not drawn) [Econazole, reference compound] | 2.6 µg/mL and 12.7 µM
